Tests used:
TNFα = TNFα (Homo sapiens (Human), UniProt P01375); assay: TNFα binding assay (time-resolved FRET, biotinylated TNFα); settings: 1 nM biotinylated TNFα, 80 nM probe, 16 hr incubation; read-out: TNF-HTRF-biotin
Protocol: TNFα binding was measured in black 96-well plates using a time-resolved FRET assay using a previously described fluorescence acceptor TNFα probe (Xiao et al J. Med. Chem. 2020). Biotinylated TNFα was purchased from Acro Biosystems. Binding reactions were conducted in 20 mM Hepes (pH 7.5) 10 mM MgCl2 0.015% Tween-20 0.05 mg/ml BSA 2% DMSO with 1 nM TNFα 0.5 nM Streptavidin-Tb and 80 nM probe. Test compounds were resuspended in DMSO and 3-fold serial dilutions were made at 100× final concentrations. Fluorescence was measured using λex=340 nm, λem=490, 520 nm on an SpectraMax M5e plate reader (Molecular Devices) after 16 hr incubation time. Dose responses were conducted in duplicate and normalized to the response with DMSO (high) and 100 nM (R)-3-(1-((3-chloro-7-fluoro-6-(2-(2-hydroxypropan-2-yl)pyrimidin-5-yl)-2-methyl-1,5-naphthyridin-4-yl)amino)ethyl)-4-fluorobenzonitrile (low) on each plate. IC50 values were determined by fitting to 4-parameter curves in GraphPad Prism.

folate receptor beta [1] = molecular target: T1, folate receptor beta (Homo sapiens (Human), UniProt P14207); assay: Folate receptor binding assay (fluorescence polarization); settings: 2.5 nM folate receptor beta, 2 nM FR-Cy probe, 2 hr incubation; read-out: FOLR2-FP
T1 sequence (P14207 17-255): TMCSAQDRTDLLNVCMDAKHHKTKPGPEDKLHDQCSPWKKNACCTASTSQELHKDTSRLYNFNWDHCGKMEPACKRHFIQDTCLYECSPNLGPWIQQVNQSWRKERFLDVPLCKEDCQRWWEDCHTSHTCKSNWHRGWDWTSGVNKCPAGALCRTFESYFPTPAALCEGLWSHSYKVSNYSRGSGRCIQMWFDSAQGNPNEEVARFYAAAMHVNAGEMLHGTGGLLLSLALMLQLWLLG
Protocol: Folate receptor binding was measured in black 96-well plates using a fluorescence polarization assay. A fluorescent probe consisting of a folate analog linked to Cy5 (FR-Cy) was custom synthesized.
Test compounds were resuspended in DMSO and 3-fold serial dilutions were made from 300-0.015 μM (100× final concentrations). Binding reactions were conducted in 200 μl final volume in 20 mM Hepes (pH 7.5) 250 mM NaCl 0.0150 Tween-20 1% DMSO with 2.5 nM folate receptor beta (Acro Biosystems) and 2 nM probe. Fluorescence polarization was measured using λex=620 nm, λem=688 nm on an Envision plate reader (Perkin Elmer) after 2 hr incubation time. Dose responses were conducted in duplicate and normalized to the response with DMSO (high) and 1 μM folic acid (low) on each plate. IC50 values were determined by fitting to 4-parameter curves in GraphPad Prism.

folate receptor beta [2] = molecular target: T1, folate receptor beta; assay: Folate receptor SPR assay (biotinylated folate receptor beta on streptavidin chip); type: binding; settings: for Rmax: biotinylated folate receptor beta on streptavidin chip; for kd / Kd / kon: multi-cycle kinetics, 25° C., 1:1 model; for Kd: read-out: FOLR2Biotin - SPR Kd; for kon: pH 7.5, read-out: ka
Protocol: Folate receptor SPR binding assays were conducted on a Biacore 8K instrument (Cytiva) using biotinylated folate receptor beta (Acro Biosystems). Briefly, folate receptor was immobilized at -550 RU on a streptavidin chip (Cytiva) in 10 mM HEPES pH 7.5, 150 mM NaCl, 0.05% Tween 20. Multi-cycle kinetic studies were conducted with 8 compound concentrations using 2-fold dilutions in 10 mM HEPES pH 7.5, 150 mM NaCl, 0.05% Tween 20, 2% DMSO at 25° C. A flow rate or 75 μl/mmn with an association time of 120 s and a dissociation time of 600 s were used. Surfaces were regenerated with 4 M MgCl2 at 30 μl/min for 30 s. Data were fit to a 1:1 model to determine the reported binding parameters.

[3] = molecular target: TNFα and streptavidin immobilized FOL2R (Homo sapiens (Human), UniProt P01375+P14207); assay: Ternary complex SPR assay; type: binding; settings: 10 nM compound, max response normalized to expected response; for TC 60 nM taggless TNF normalized: 60 nM untagged TNF; for TC 300 nM- tagless TNF Normalized: 300 nM untagged TNF; for TC 150 nM- tagless TNF Normalized: 150 nM untagged TNF
Sequence of TNFα and streptavidin immobilized FOL2R (P14207 17-230): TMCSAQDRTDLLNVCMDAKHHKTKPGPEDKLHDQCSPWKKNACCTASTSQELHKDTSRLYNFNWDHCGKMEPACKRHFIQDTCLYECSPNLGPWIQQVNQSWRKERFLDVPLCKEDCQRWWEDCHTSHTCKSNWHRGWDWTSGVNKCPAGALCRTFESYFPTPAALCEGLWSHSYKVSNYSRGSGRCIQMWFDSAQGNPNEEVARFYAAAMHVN
Sequence of TNFα and streptavidin immobilized FOL2R (P01375 77-233): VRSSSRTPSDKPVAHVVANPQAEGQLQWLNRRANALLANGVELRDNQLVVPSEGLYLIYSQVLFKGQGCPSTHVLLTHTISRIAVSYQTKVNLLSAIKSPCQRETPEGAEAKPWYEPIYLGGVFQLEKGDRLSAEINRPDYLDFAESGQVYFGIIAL
Protocol: Folate receptor-TNFα ternary complex SPR assays were conducted on a Biacore 8K instrument (Cytiva) using biotinylated folate receptor beta (Acro Biosystems). Folate receptor was immobilized at -1800 RU on a streptavidin chip (Cytiva) in 10 mM HEPES pH 7.5, 150 mM NaCl, 0.05% Tween 20. Untagged TNF was preincubated with 10 nM compound for 6 hr in 10 mM HEPES pH 7.5, 150 mM NaCl, 0.05 Tween 20, 2% DMSO at 25° C. Samples were then injected over the folate receptor surface at 30 μl/min with an association time of 110 s and a dissociation time of 600 s. Surfaces were regenerated with 4 M MgCl2 at 30 μl/mm for 30 s. The maximum measured response was normalized by comparison to the maximum expected response for each compound.

Sequence of TNFα (P01375 77-233): as above

SMILES	IC50 (TNFα) [nM]	IC50 (folate receptor beta [1]) [nM]	Rmax (folate receptor beta [2]) [RU]	kd (folate receptor beta [2]) [s⁻¹]	Kd (folate receptor beta [2]) [nM]	kon (folate receptor beta [2]) [M⁻¹ s⁻¹]	TC 60 nM taggless TNF normalized [3] [%]	TC 300 nM- tagless TNF Normalized [3] [%]	TC 150 nM- tagless TNF Normalized [3] [%]
Cc1nc2cc(F)c(-c3cnc(N4CCN(C(=O)COCCOCCOCCOCCOCCOCCn5cc(CC[C@H](NC(=O)c6ccc(CCc7ccc8nc(N)nc(O)c8c7)cc6)C(=O)O)nn5)CC4)nc3)nc2c(N[C@H](C)c2cc(C#N)ccc2F)c1Cl [Compound I-82, (S)-2-(4-(2-(2-amino-4-hydroxyquinazolin-6-yl)ethyl)benzamido)-4-(1-(20-(4-(5-(7-chloro-8-(((R)-1-(5-cyano-2-fluorophenyl)ethyl)amino)-3-fluoro-6-methyl-1,5-naphthyridin-2-yl)pyrimidin-2-yl)piperazin-1-yl)-20-oxo-3,6,9,12,15,18-hexaoxaicosyl)-1H-1,2,3-triazol-4-yl)butanoic acid]	19	4.9	14.5	0.000591	0.031	1.91e+07	15.7	24.9	
Cc1nc2cc(F)c(-c3cnc(N4CCN(C(=O)COCCOCCN5CCC6(CC5)CCN(C(=O)CC[C@H](NC(=O)c5ccc(NCc7cnc8nc(N)nc(O)c8n7)cc5)C(=O)O)CC6)CC4)nc3)nc2c(N[C@H](C)c2cc(C#N)ccc2F)c1Cl [Compound I-84, (S)-2-(4-(((2-amino-4-hydroxypteridin-6-yl)methyl)amino)benzamido)-5-(9-(2-(2-(2-(4-(5-(7-chloro-8-(((R)-1-(5-cyano-2-fluorophenyl)ethyl)amino)-3-fluoro-6-methyl-1,5-naphthyridin-2-yl)pyrimidin-2-yl)piperazin-1-yl)-2-oxoethoxy)ethoxy)ethyl)-3,9-diazaspiro[5.5]undecan-3-yl)-5-oxopentanoic acid]	9	6.9	19.7	0.000153	0.0059	2.59e+07	10.8	17.3	17.4
Cc1nc2cc(F)c(-c3cnc(N4CCN(C(=O)COCCOCCOCCOCCOCCOCCn5cc(CC[C@H](NC(=O)c6ccc(N(C)Cc7ccc8nc(N)[nH]c(=O)c8c7)cc6)C(=O)O)nn5)CC4)nc3)nc2c(N[C@H](C)c2cc(C#N)ccc2F)c1Cl [Compound I-85, (S)-2-(4-(((2-amino-4-oxo-3,4-dihydroquinazolin-6-yl)methyl)(methyl)amino)benzamido)-4-(1-(20-(4-(5-(7-chloro-8-(((R)-1-(5-cyano-2-fluorophenyl)ethyl)amino)-3-fluoro-6-methyl-1,5-naphthyridin-2-yl)pyrimidin-2-yl)piperazin-1-yl)-20-oxo-3,6,9,12,15,18-hexaoxaicosyl)-1H-1,2,3-triazol-4-yl)butanoic acid]	13	12	11.9	0.00112	0.088	1.27e+07	9.7	15.1	
Cc1nc2cc(F)c(-c3cnc(N4CCN(C(=O)COCCOCCOCCOCCOCCOCCn5cc(CC[C@H](NC(=O)c6ccc(N(C)Cc7cnc8nc(N)[nH]c(=O)c8n7)cc6)C(=O)O)nn5)CC4)nc3)nc2c(N[C@H](C)c2cc(C#N)ccc2F)c1Cl [Compound I-86, (S)-2-(4-(((2-amino-4-oxo-3,4-dihydropteridin-6-yl)methyl)(methyl)amino)benzamido)-4-(1-(20-(4-(5-(7-chloro-8-(((R)-1-(5-cyano-2-fluorophenyl)ethyl)amino)-3-fluoro-6-methyl-1,5-naphthyridin-2-yl)pyrimidin-2-yl)piperazin-1-yl)-20-oxo-3,6,9,12,15,18-hexaoxaicosyl)-1H-1,2,3-triazol-4-yl)butanoic acid]	17	7.7	18.1	0.000344	0.023	1.53e+07		22.8	20.1
Cc1nc2cc(F)c(-c3cnc(N4CCN(C(=O)COCCOCCOCCOCCOCCn5cc(CC[C@H](NC(=O)c6ccc(NCc7cnc8nc(N)nc(O)c8n7)cc6)C(=O)O)nn5)CC4)nc3)nc2c(N[C@H](C)c2cc(C#N)ccc2F)c1Cl [Compound I-89, (S)-2-(4-(((2-amino-4-hydroxypteridin-6-yl)methyl)amino)benzamido)-4-(1-(17-(4-(5-(7-chloro-8-(((R)-1-(5-cyano-2-fluorophenyl)ethyl)amino)-3-fluoro-6-methyl-1,5-naphthyridin-2-yl)pyrimidin-2-yl)piperazin-1-yl)-17-oxo-3,6,9,12,15-pentaoxaheptadecyl)-1H-1,2,3-triazol-4-yl)butanoic acid]	42	8.4	31.1	0.000337	0.223	1.51e+06	11.6	15	
Cc1nc2cc(F)c(-c3cnc(N4CCN(C(=O)COCCn5cc(CCCN6CCC7(CC6)CCN(C(=O)CC[C@H](NC(=O)c6ccc(NCc8cnc9nc(N)nc(O)c9n8)cc6)C(=O)O)CC7)nn5)CC4)nc3)nc2c(N[C@H](C)c2cc(C#N)ccc2F)c1Cl [Compound I-90, (S)-2-(4-(((2-amino-4-hydroxypteridin-6-yl)methyl)amino)benzamido)-5-(9-(3-(1-(2-(2-(4-(5-(7-chloro-8-(((R)-1-(5-cyano-2-fluorophenyl)ethyl)amino)-3-fluoro-6-methyl-1,5-naphthyridin-2-yl)pyrimidin-2-yl)piperazin-1-yl)-2-oxoethoxy)ethyl)-1H-1,2,3-triazol-4-yl)propyl)-3,9-diazaspiro[5.5]undecan-3-yl)-5-oxopentanoic acid]	7.6	4.4	13.3	0.00013	0.00496	2.62e+07		20.6	20.4
Cc1nc2cc(F)c(-c3cnc(N4CCN(C(=O)COCCn5cc(CN(CCO)CCOCCOCCOCCNC(=O)CC[C@H](NC(=O)c6ccc(NCc7cnc8nc(N)nc(O)c8n7)cc6)C(=O)O)nn5)CC4)nc3)nc2c(N[C@H](C)c2cc(C#N)ccc2F)c1Cl [Compound I-93, (S)-19-(4-(((2-amino-4-hydroxypteridin-6-yl)methyl)amino)benzamido)-3-((1-(2-(2-(4-(5-(7-chloro-8-(((R)-1-(5-cyano-2-fluorophenyl)ethyl)amino)-3-fluoro-6-methyl-1,5-naphthyridin-2-yl)pyrimidin-2-yl)piperazin-1-yl)-2-oxoethoxy)ethyl)-1H-1,2,3-triazol-4-yl)methyl)-1-hydroxy-16-oxo-6,9,12-trioxa-3,15-diazaicosan-20-oic acid]	18	6.6	17.7	0.000178	0.0109	1.63e+07		18.2	16.1
